In patent US20140323501A1, “AMINO-PROPYLENE-GLYCOL DERIVATIVES, PREPARATION METHOD AND PHARMACEUTICAL COMPOSITION AND USE THEREOF” (INSTITUTE OF MATERIA MEDICA, CHINESE ACADEMY OF MEDICAL …, priority 2011, published 2014):

How the values were obtained:
[1] = tested on: lymphocyte proliferation / cytotoxic T lymphocytes; details: MLR and CTL; background, Fujita et al.; cited from earlier work
[2] = tested on: SD rat peripheral blood lymphocyte counts; assay: Effect of S1P1 receptor agonists on rat vein (peripheral) blood lymphocyte counts; type: in vivo; details: 10 mg/Kg intragastric; for LYM 0 h: before administration; for LYM 24 h: 24 h after administration; for compared with 0 h (%) 1 h / compared with 0 h (%) 2 h / compared with 0 h (%) 4 h / compared with 0 h (%) 8 h / compared with 0 h (%) 12 h / compared with 0 h (%) 24 h: lymphocyte count change vs 0 h; for Δ %: largest decrease of lymphocyte count vs 0 h
Description: 10 mg of drugs were measured and placed in a mortar. After 4 mL of 5‰ CMC-Na were added, homogenous suspension was prepared in the mortar (one drop of twain-80 was added to help dissolving). Dosage: 10 mg/Kg, dose volume: 0.4 mL/100 g, intragastric administration.
Every medicated group was assigned three rats.
After the experimental animals stable in the clean environment for 24 h, 10 μL of blood was withdrawn via tail vein and diluted into 2 mL of diluents quickly. […] Then the prepared drugs were administered intragastrically to the animals. […] The animals were killed after 24 h.

SD rat heart rate = assay: Effect of S1P1 receptor agonists on rat heart rate; type: in vivo; parameters: heart rate 0: unit not given beside the values; details: for HR delta %: (lowest heart rate postdose − pre-administration)/pre-administration; for heart rate 0.5 h / heart rate 1 h / heart rate 3 h / heart rate 6 h / heart rate 8 h / heart rate 24 h / heart rate pre-administration / heart rate 0: intragastric; for heart rate pre-administration: before administration; for heart rate 0: time 0, before administration
[3] = Table 1, 1 h after administration
[4] = Table 1, 2 h after administration
[5] = Table 1, 4 h after administration
[6] = Table 1, 8 h after administration
[7] = Table 1, 12 h after administration
[8] = Table 2, 0.5 h after administration
[9] = Table 2, 1 h after administration
[10] = Table 2, 3 h after administration
[11] = Table 2, 6 h after administration
[12] = Table 2, 8 h after administration
[13] = Table 2, 24 h after administration

SMILES	LYM 0 h ([2]; Table 1)	LYM 1 h [2, 3]	LYM 2 h [2, 4]	LYM 0 h ([2]; Table 3)	LYM 1 h ([2]; Table 3, 1 h)	LYM 2 h ([2]; Table 3, 2 h)	LYM 4 h ([2]; Table 3, 4 h)	LYM 6 h ([2]; Table 3)	LYM 8 h ([2]; Table 3, 8 h)	LYM 12 h ([2]; Table 3, 12 h)	LYM 23 h ([2]; Table 3)	Δ % ([2]; Table 3)	Δ % = the percentage of change of rat heart rate before and after administration (SD rat heart rate; Table 4)	heart rate 0.5 h (SD rat heart rate; Table 4, 0.5 h)	heart rate 1 h (SD rat heart rate; Table 4, 1 h)	heart rate 3 h (SD rat heart rate; Table 4, 3 h)	heart rate 6 h (SD rat heart rate; Table 4, 6 h)	heart rate 8 h (SD rat heart rate; Table 4, 8 h)	heart rate 24 h (SD rat heart rate; Table 4, 24 h)	heart rate 0 (SD rat heart rate; Table 4)	also measured
CCCCCCC(=O)CCCCCC/C=C/C[C@@H](O)[C@H](O)[C@@](N)(CO)C(=O)O [ISP-I, myriocin]																					activity relative to cyclosporine [1]: 10 fold
CCCCc1ccc(Oc2ccc(CCC(N)(CO)CO)cc2)cc1 [Syl926]	5.17 ± 2.12 × 10^9/L	3.40 ± 0.20 × 10^9/L	2.57 ± 0.84 × 10^9/L																		LYM 4 h [2, 5]: 2.33 ± 0.90 × 10^9/L; LYM 8 h [2, 6]: 1.40 ± 0.79 × 10^9/L; LYM 12 h [2, 7]: 1.33 ± 0.42 × 10^9/L; LYM 24 h ([2]; Table 1): 1.37 ± 0.31 × 10^9/L; compared with 0 h (%) 1 h ([2]; Table 1, 1 h): 34.19%; compared with 0 h (%) 2 h ([2]; Table 1, 2 h): 50.32%; compared with 0 h (%) 4 h ([2]; Table 1, 4 h): 54.84%; compared with 0 h (%) 8 h ([2]; Table 1, 8 h): 72.90%; compared with 0 h (%) 12 h ([2]; Table 1, 12 h): 74.19%; compared with 0 h (%) 24 h ([2]; Table 1): 73.55%; HR delta % (SD rat heart rate; Table 2): 9.60%; heart rate 0.5 h (SD rat heart rate; [8]): 361.91; heart rate 1 h (SD rat heart rate; [9]): 346.80; heart rate 3 h (SD rat heart rate; [10]): 327.09; heart rate 6 h (SD rat heart rate; [11]): 340.82; heart rate 8 h (SD rat heart rate; [12]): 318.55; heart rate 24 h (SD rat heart rate; [13]): 354.80; heart rate pre-administration (SD rat heart rate; Table 2): 352.85
CCc1nc(-c2ccc(Oc3ccc(CCC(N)(CO)CO)cc3)cc2)co1 [Syl934]	4.17 ± 0.40 × 10^9/L	3.60 ± 0.69 × 10^9/L	2.47 ± 0.23 × 10^9/L																		LYM 4 h [2, 5]: 2.87 ± 0.55 × 10^9/L; LYM 8 h [2, 6]: 1.83 ± 0.68 × 10^9/L; LYM 12 h [2, 7]: 1.17 ± 0.49 × 10^9/L; LYM 24 h ([2]; Table 1): 1.33 ± 0.32 × 10^9/L; compared with 0 h (%) 1 h ([2]; Table 1, 1 h): 13.60%; compared with 0 h (%) 2 h ([2]; Table 1, 2 h): 40.80%; compared with 0 h (%) 4 h ([2]; Table 1, 4 h): 31.20%; compared with 0 h (%) 8 h ([2]; Table 1, 8 h): 56.00%; compared with 0 h (%) 12 h ([2]; Table 1, 12 h): 72.00%; compared with 0 h (%) 24 h ([2]; Table 1): 68.00%; HR delta % (SD rat heart rate; Table 2): 2.4%; heart rate 0.5 h (SD rat heart rate; [8]): 376.00; heart rate 1 h (SD rat heart rate; [9]): 369.10; heart rate 3 h (SD rat heart rate; [10]): 337.86; heart rate 6 h (SD rat heart rate; [11]): 338.09; heart rate 8 h (SD rat heart rate; [12]): 362.55; heart rate 24 h (SD rat heart rate; [13]): 365.89; heart rate pre-administration (SD rat heart rate; Table 2): 346.00
CC(C)c1nc(-c2ccc(Oc3ccc(CCC(N)(CO)CO)cc3)cc2)co1 [Syl935]	4.77 ± 0.21 × 10^9/L	3.73 ± 1.23 × 10^9/L	2.70 ± 1.05 × 10^9/L																		LYM 4 h [2, 5]: 2.77 ± 0.72 × 10^9/L; LYM 8 h [2, 6]: 2.10 ± 0.36 × 10^9/L; LYM 12 h [2, 7]: 1.17 ± 0.31 × 10^9/L; LYM 24 h ([2]; Table 1): 1.73 ± 0.29 × 10^9/L; compared with 0 h (%) 1 h ([2]; Table 1, 1 h): 21.68%; compared with 0 h (%) 2 h ([2]; Table 1, 2 h): 43.36%; compared with 0 h (%) 4 h ([2]; Table 1, 4 h): 41.96%; compared with 0 h (%) 8 h ([2]; Table 1, 8 h): 55.94%; compared with 0 h (%) 12 h ([2]; Table 1, 12 h): 75.52%; compared with 0 h (%) 24 h ([2]; Table 1): 63.64%; HR delta % (SD rat heart rate; Table 2): 15.90%; heart rate 0.5 h (SD rat heart rate; [8]): 387.18; heart rate 1 h (SD rat heart rate; [9]): 405.20; heart rate 3 h (SD rat heart rate; [10]): 384.20; heart rate 6 h (SD rat heart rate; [11]): 352.44; heart rate 8 h (SD rat heart rate; [12]): 373.33; heart rate 24 h (SD rat heart rate; [13]): 398.50; heart rate pre-administration (SD rat heart rate; Table 2): 419.00
NC(CO)(CO)CCc1ccc(Oc2ccc(-c3coc(C4CC4)n3)cc2)cc1 [Syl955]				7.40 ± 2.18 ×10^9/L	6.27 ± 0.78 ×10^9/L	6.87 ± 0.90 ×10^9/L	6.83 ± 1.26 ×10^9/L	8.33 ± 2.70 ×10^9/L	6.53 ± 1.42 ×10^9/L	2.90 ± 0.95 ×10^9/L	4.93 ± 1.07 ×10^9/L	60.81%	21.72%	373.00	384.75	338.25	335.50	351.50	353.90	428.63	
CCCc1nc(-c2ccc(Oc3ccc(C(O)CC(N)(CO)CO)cc3)cc2)co1 (centres unmarked) [Syl961]				7.90 ± 2.46 ×10^9/L	8.57 ± 2.55 ×10^9/L	6.40 ± 0.98 ×10^9/L	6.33 ± 2.25 ×10^9/L	5.83 ± 1.88 ×10^9/L	3.93 ± 1.78 ×10^9/L	3.67 ± 1.68 ×10^9/L	2.63 ± 0.31 ×10^9/L	66.67%	11.64%	382.56	364.33	379.45	344.36	363.08	363.27	389.75	
CC(C)c1nc(-c2ccc(Oc3ccc(C(O)CC(N)(CO)CO)cc3)cc2)co1 (centres unmarked) [Syl962]				8.03 ± 1.15 ×10^9/L	5.60 ± 0.90 ×10^9/L	5.83 ± 1.54 ×10^9/L	6.27 ± 1.42 ×10^9/L	3.63 ± 0.38 ×10^9/L	2.67 ± 0.67 ×10^9/L	3.10 ± 0.56 ×10^9/L	2.43 ± 0.59 ×10^9/L	69.70%	13.58%	397.13	374.88	358.58	343.63	337.00	331.89	390.00	
NC(CO)(CO)CC(O)c1ccc(Oc2ccc(-c3coc(C4CC4)n3)cc2)cc1 (centres unmarked) [Syl963]				6.90 ± 0.95 ×10^9/L	4.67 ± 1.50 ×10^9/L	5.07 ± 2.10 ×10^9/L	6.67 ± 0.81 ×10^9/L	4.57 ± 1.29 ×10^9/L	4.13 ± 0.84 ×10^9/L	4.20 ± 2.52 ×10^9/L	2.43 ± 0.91 ×10^9/L	64.73%	4.58%	388.38	378.36	377.36	366.88	362.50	369.05	395.50	
CCc1nc(-c2ccc(Sc3ccc(CCC(N)(CO)CO)cc3)cc2)co1 [Syl974]				6.55 ± 0.21 ×10^9/L	4.63 ± 0.61 ×10^9/L	5.27 ± 1.27 ×10^9/L	5.20 ± 0.61 ×10^9/L	5.77 ± 0.40 ×10^9/L	4.67 ± 0.61 ×10^9/L	2.23 ± 0.59 ×10^9/L	4.47 ± 1.36 ×10^9/L	65.9%	4.81%	382.63	388.00	396.19	368.56	364.11	363.13	381.50	
